Converted amounts (≈) assume the structure as drawn. Read-outs that look alike come from different tables or passages of the source.
Tests used:
[1] = test system: Serratia 7; experiment: MIC, standard serial dilution on nutrient agar; format: cell-based
[2] = test system: resistant bacteria; settings: in words, from Table 1
Protocol: The minimum inhibitory concentrations (mcg/ml) of the new compounds of this invention against various microorganisms were determined according to a standard serial dilution method using nutrient agar incubation medium at 37° C., the estimation being made after 18 hours incubation. For comparison purpose, the MIC. of kanamycin A, amikacin and dibekacin was also determined under the same test conditions.

[3] = test system: Providencia ZAO; experiment: MIC, standard serial dilution on nutrient agar; format: cell-based
[4] = test system: Staphylococcus aureus MS 9883; experiment: MIC, standard serial dilution on nutrient agar; format: cell-based
[5] = test system: Staphylococcus aureus 209P; experiment: MIC, standard serial dilution on nutrient agar; format: cell-based
[6] = test system: Serratia CAT; experiment: MIC, standard serial dilution on nutrient agar; format: cell-based
[7] = test system: Klebsiella HOU; experiment: MIC, standard serial dilution on nutrient agar; format: cell-based
[8] = test system: Staphylococcus aureus APOI; experiment: MIC, standard serial dilution on nutrient agar; format: cell-based
[9] = test system: Proteus rettgeri AUB; experiment: MIC, standard serial dilution on nutrient agar; format: cell-based; settings: Providencia rettgeri
[10] = test system: Providencia Pv 37; experiment: MIC, standard serial dilution on nutrient agar; format: cell-based; settings: PV37, 37° C., 18 hours
[11] = test system: Klebsiella BRIA; experiment: MIC, standard serial dilution on nutrient agar; format: cell-based
[12] = test system: Enterobacter HAU; experiment: MIC, standard serial dilution on nutrient agar; format: cell-based
[13] = test system: Erwinia 7-22; experiment: MIC, standard serial dilution on nutrient agar; format: cell-based; settings: 722, 37° C., 18 hours
[14] = test system: Pyocyanique; experiment: MIC, standard serial dilution on nutrient agar; format: cell-based
[15] = test system: Pseudomonas aeruginosa A3; experiment: MIC, standard serial dilution on nutrient agar; format: cell-based
[16] = test system: Klebsiella THO; experiment: MIC, standard serial dilution on nutrient agar; format: cell-based
[17] = test system: Klebsiella pneumoniae 22 #3038; experiment: MIC, standard serial dilution on nutrient agar; format: cell-based
[18] = test system: Staphylococcus epidermides 109; experiment: MIC, standard serial dilution on nutrient agar; format: cell-based; settings: Staphylococcus, 109, 18 h
[19] = test system: Providencia 19; experiment: MIC, standard serial dilution on nutrient agar; format: cell-based
[20] = test system: Escherichia coli K-12 ML 1629; experiment: MIC, standard serial dilution on nutrient agar; format: cell-based; settings: K12ML1629, 37° C., 18 hours
[21] = test system: Staphylococcus aureus MS 9610; experiment: MIC, standard serial dilution on nutrient agar; format: cell-based; settings: Staphylococcus aureus, MS9610, 18 h
[22] = test system: Enterobacter 666; experiment: MIC, standard serial dilution on nutrient agar; format: cell-based; settings: 37° C., 18 hours
[23] = test system: Proteus vulgaris BAC; experiment: MIC, standard serial dilution on nutrient agar; format: cell-based
[24] = test system: Escherichia coli K-12; experiment: MIC, standard serial dilution on nutrient agar; format: cell-based; settings: K12, 37° C., 18 hours
[25] = test system: Serratia BOT; experiment: MIC, standard serial dilution on nutrient agar; format: cell-based; settings: Serratia, 18 h
[26] = test system: Sarcina lutea PCI 1001; experiment: MIC, standard serial dilution on nutrient agar; format: cell-based; settings: Micrococcus luteus
[27] = test system: resistant bacteria; settings: in words, background art; cited from earlier work
[28] = Enterobacter HAU, nutrient agar, 37° C., 18 hours, read-out: MIC.
[29] = Pseudomonas aeruginosa, A3, 18 h
[30] = MS9883, Staphylococcus aureus MS 9883, nutrient agar, 37° C., 18 hours, read-out: MIC.
[31] = Staphylococcus aureus, 209P, 18 h
[32] = Proteus rettgeri AUB, nutrient agar, 37° C., 18 hours, read-out: MIC.

Compound | MIC ([1]; Serratia, 7, 18 h) | antibacterial activity against various resistant bacteria [2] | MIC ([7]; Klebsiella, 18 h) | MIC [10] | MIC ([11]; Klebsiella, 18 h) | MIC [12, 28] | MIC [13] | MIC ([14]; 18 h) | MIC [15, 29] | MIC ([16]; Klebsiella, 18 h) | MIC ([17]; Klebsiella pneumoniae, 18 h) | MIC [18] | MIC ([19]; Providencia, 19, 18 h) | MIC [20] | MIC [21] | MIC [22] | MIC [24] | MIC [25] | MIC ([26]; PCI1001, 18 h) | MIC ([3]; Providencia, 18 h) | also measured
NCC1CCC(O)C(OC2C(N)CC(N)C(OC3OC(CO)C(O)C(N)C3O)C2O)O1 (stereo not shown) [Compound No. 1, 3',4'-dideoxykanamycin A] | > 100 µg/mL | remarkably higher antibacterial activity against various resistant bacteria than the parent kanamycin A | > 100 µg/mL | > 100 µg/mL | > 100 µg/mL | 12.5 µg/mL (≈ 27.6 µM) | > 100 µg/mL | > 100 µg/mL | 6.25 µg/mL (≈ 13.8 µM) | 6.25 µg/mL (≈ 13.8 µM) | > 100 µg/mL | 6.25 µg/mL (≈ 13.8 µM) | 100 µg/mL (≈ 221 µM) | 6.25 µg/mL (≈ 13.8 µM) | 6.25 µg/mL (≈ 13.8 µM) | 100 µg/mL (≈ 221 µM) | 6.25 µg/mL (≈ 13.8 µM) | 50 µg/mL (≈ 110 µM) | 12.5 µg/mL (≈ 27.6 µM) | – | MIC ([3]; Providencia ZAO, nutrient agar, 37° C., 18 hours, read-out: MIC.): 12.5 µg/mL (≈ 27.6 µM); MIC ([4]; Staphylococcus aureus, MS9883, 18 h): 6.25 µg/mL (≈ 13.8 µM); MIC ([5]; Staphylococcus aureus 209P, nutrient agar, 37° C., 18 hours, read-out: MIC.): 3.12 µg/mL (≈ 6.89 µM); MIC ([6]; Serratia CAT, nutrient agar, 37° C., 18 hours, read-out: MIC.): 12.5 µg/mL (≈ 27.6 µM); MIC ([8]; Staphylococcus aureus APOI, nutrient agar, 37° C., 18 hours, read-out: MIC.): 3.12 µg/mL (≈ 6.89 µM); MIC ([9]; 18 h): > 100 µg/mL; MIC ([23]; Proteus vulgaris BAC, nutrient agar, 37° C., 18 hours, read-out: MIC.): 3.12 µg/mL (≈ 6.89 µM)
NCC[C@H](O)C(=O)N[C@@H]1C[C@H](N)[C@@H](O[C@H]2O[C@H](CN)[C@@H](O)[C@H](O)[C@H]2O)[C@H](O)[C@H]1O[C@H]1O[C@H](CO)[C@@H](O)[C@H](N)[C@H]1O [Amikacin, 1-N-((S)-2-hydroxy-4-aminobutyryl)-kanamycin A] | 12.5 µg/mL (≈ 21.3 µM) | – | 12.5 µg/mL (≈ 21.3 µM) | 12.5 µg/mL (≈ 21.3 µM) | – | – | 1.56 µg/mL (≈ 2.66 µM) | 50 µg/mL (≈ 85.4 µM) | 1.56 µg/mL (≈ 2.66 µM) | – | 3.12 µg/mL (≈ 5.33 µM) | 3.12 µg/mL (≈ 5.33 µM) | 12.5 µg/mL (≈ 21.3 µM) | 1.56 µg/mL (≈ 2.66 µM) | 3.12 µg/mL (≈ 5.33 µM) | 1.56 µg/mL (≈ 2.66 µM) | 1.56 µg/mL (≈ 2.66 µM) | 12.5 µg/mL (≈ 21.3 µM) | 3.12 µg/mL (≈ 5.33 µM) | 12.5 µg/mL (≈ 21.3 µM) | MIC [4, 30]: 6.25 µg/mL (≈ 10.7 µM); MIC [5, 31]: 3.12 µg/mL (≈ 5.33 µM); MIC ([6]; Serratia, 18 h): 12.5 µg/mL (≈ 21.3 µM); MIC ([8]; Staphylococcus aureus, 18 h): 1.56 µg/mL (≈ 2.66 µM); MIC [9, 32]: 6.25 µg/mL (≈ 10.7 µM); MIC ([11]; Klebsiella BRIA, nutrient agar, 37° C., 18 hours, read-out: MIC.): 6.25 µg/mL (≈ 10.7 µM); activity against resistant bacteria [27]: cannot be inactivated by the kanamycin-resistant bacteria; MIC ([12]; Enterobacter, 18 h): 50 µg/mL (≈ 85.4 µM); MIC ([16]; Klebsiella THO, nutrient agar, 37° C., 18 hours, read-out: MIC.): 6.25 µg/mL (≈ 10.7 µM); MIC ([23]; Proteus vulgaris, 18 h): 3.12 µg/mL (≈ 5.33 µM)
NCCC(O)C(=O)NC1CC(N)C(OC2OC(CN)CCC2O)C(O)C1OC1OC(CO)C(O)C(N)C1O [Compound No. 2, 1-N-((S)-2-hydroxy-4-aminobutyryl)-3',4'-dideoxykanamycin A] | – | higher antibacterial activity against the various resistant bacteria than amikacin | – | 6.25 µg/mL (≈ 11.3 µM) | 1.56 µg/mL (≈ 2.82 µM) | 12.5 µg/mL (≈ 22.6 µM) | 0.78 µg/mL (≈ 1.41 µM) | – | – | 1.56 µg/mL (≈ 2.82 µM) | – | 0.78 µg/mL (≈ 1.41 µM) | – | 1.56 µg/mL (≈ 2.82 µM) | 1.56 µg/mL (≈ 2.82 µM) | 0.78 µg/mL (≈ 1.41 µM) | 1.56 µg/mL (≈ 2.82 µM) | 6.25 µg/mL (≈ 11.3 µM) | – | 6.25 µg/mL (≈ 11.3 µM) | MIC ([1]; Serratia 7, nutrient agar, 37° C., 18 hours, read-out: MIC.): 3.12 µg/mL (≈ 5.64 µM); MIC [4, 30]: 3.12 µg/mL (≈ 5.64 µM); MIC [5, 31]: 1.56 µg/mL (≈ 2.82 µM); MIC ([6]; Serratia, 18 h): 6.25 µg/mL (≈ 11.3 µM); MIC ([7]; Klebsiella HOU, nutrient agar, 37° C., 18 hours, read-out: MIC.): 3.12 µg/mL (≈ 5.64 µM); MIC ([8]; Staphylococcus aureus, 18 h): 0.78 µg/mL (≈ 1.41 µM); MIC [9, 32]: 3.12 µg/mL (≈ 5.64 µM); MIC ([14]; Pyocyanique, nutrient agar, 37° C., 18 hours, read-out: MIC.): 12.5 µg/mL (≈ 22.6 µM); MIC ([15]; Pseudomonas aeruginosa A3, nutrient agar, 37° C., 18 hours, read-out: MIC.): 3.12 µg/mL (≈ 5.64 µM); MIC ([17]; Klebsiella pneumoniae 22 #3038, nutrient agar, 37° C., 18 hours, read-out: MIC.): 3.12 µg/mL (≈ 5.64 µM); MIC ([19]; Providencia 19, nutrient agar, 37° C., 18 hours, read-out: MIC.): 3.12 µg/mL (≈ 5.64 µM); MIC ([23]; Proteus vulgaris, 18 h): 1.56 µg/mL (≈ 2.82 µM); MIC ([26]; PCI1001, Sarcina lutea PCI 1001, nutrient agar, 37° C., 18 hours, read-out: MIC.): 3.12 µg/mL (≈ 5.64 µM)
1-N-((S)-2-hydroxy-4-aminobutyryl)-5-O-β-D-xylofuranosyl- or ribofuranosyl-neamine [butirosins] | – | – | – | – | – | – | – | – | – | – | – | – | – | – | – | – | – | – | – | – | activity against resistant bacteria [27]: active against some kanamycin- and ribostamycin-resistant bacteria

Source: patent US4298727A, “3',4'-Dideoxykanamycin A and 1-N-(S)-α-hydroxy-ω-aminoalkanoyl) derivatives thereof” (Zaidan Hojin Biseibutsu Kagaku KenkyuKai, priority 1979, dated 1981)
